In article PMC7424564 (Pharmacology Research & Perspectives, 2020):
“And” between values parts separate entries of the source, which are not always exact repeats. Identical values can stand only once. “Also recorded” adds a separate entry of the source. Like-named read-outs stand apart in the source and are kept apart here.

Assays:
mutant BTK (C481S) = mutant BTK (C481S) (Homo sapiens, UniProt Q06187, C481S); experiment: BTK enzyme activity assay; type: biochemical
BTK‐WT = BTK‐WT (Homo sapiens, UniProt Q06187); experiment: Ki determination with Omnia Tyr peptide kit; type: biochemical
BTK [1] = target: T1, BTK (Homo sapiens, UniProt Q06187); experiment: Kinase profiling; type: biochemical
HCK = HCK (Homo sapiens, UniProt P08631); experiment: Kinase profiling; type: biochemical
JAK3 = JAK3 (Homo sapiens, UniProt P52333); experiment: Kinase profiling; type: biochemical
TEC = TEC (Homo sapiens, UniProt P42680); experiment: Kinase profiling; type: biochemical
TMD8 cells = experiment: Cell cytotoxicity assay; type: cell-based; settings: Homo sapiens, TMD8, 96 h, read-out: IC50 cell proliferation TMD8
HBL‐1 cells = experiment: Cell cytotoxicity assay; type: cell-based; settings: HBL1, 96 h, read-out: IC50 cell proliferation HBL‐1
U2932 cells = experiment: Cell cytotoxicity assay; type: cell-based; settings: for IC50: Homo sapiens
Raji cells = experiment: Cell cytotoxicity assay; type: cell-based; settings: Homo sapiens, read-out: cell killing potency (IC50) Raji
BTK [2] = target: T1, BTK; experiment: Fluorescence competition binding assay
BTK [3] = target: T1, BTK; experiment: Receptor residence time after washout in THP‐1 cells; type: binding; settings: 500 nmol/L for 1 hour, 24 hours, densitometric scanning
phospho‐BTK (Y223) = experiment: Phospho‐protein analysis in THP‐1 cells; type: cell-based, human
phospho‐PLCγ2 (Y1217) = experiment: Phospho‐protein analysis in THP‐1 cells; type: cell-based; settings: Homo sapiens, THP-1, 1 h, read-out: IC50 PLCγ2‐phosphorylation (Y1217)
TNF‐α secretion = experiment: Cytokine ELISA, TNF‐α secretion in THP‐1 cells; type: cell-based; settings: Homo sapiens, THP-1, read-out: IC50 TNF‐α secretion
IL‐8 secretion = experiment: Cytokine ELISA, IL‐8 secretion in TMD8 cells; type: cell-based; settings: Homo sapiens, TMD8, 16 h, read-out: IC50 IL‐8 secretion
[4] = Caco‐2 permeability/efflux ratio; type: in vitro ADME; settings: human, Caco-2
Caco‐2 cell monolayers = experiment: Caco‐2 permeability/efflux ratio; type: in vitro ADME; settings: Caco2 monolayer
[5] = In vitro metabolism in liver microsomes; type: in vitro ADME; settings: mouse liver microsomes
[6] = In vitro metabolism in liver microsomes; type: in vitro ADME; settings: rat liver microsomes
[7] = In vitro metabolism in liver microsomes; type: in vitro ADME; settings: dog liver microsomes
[8] = In vitro metabolism in liver microsomes; type: in vitro ADME; settings: monkey liver microsomes
CYP1A2 = CYP1A2 (Homo sapiens, UniProt P05177); experiment: In vitro CYP inhibition in human liver microsomes; type: in vitro ADME
CYP2C19 = CYP2C19 (Homo sapiens, UniProt P33261); experiment: In vitro CYP inhibition in human liver microsomes; type: in vitro ADME
CYP2D6 = CYP2D6 (Homo sapiens, UniProt P10635); experiment: In vitro CYP inhibition in human liver microsomes; type: in vitro ADME
CYP3A4 = CYP3A4 (Homo sapiens, UniProt P08684); experiment: In vitro CYP inhibition in human liver microsomes; type: in vitro ADME
CYP2C8 = CYP2C8 (Homo sapiens, UniProt P10632); experiment: In vitro CYP inhibition in human liver microsomes; type: in vitro ADME
CYP2C9 = CYP2C9 (Homo sapiens, UniProt P11712); experiment: In vitro CYP inhibition in human liver microsomes; type: in vitro ADME
Plasma protein binding [9] = type: in vitro ADME; settings: rat
Plasma protein binding [10] = type: in vitro ADME; settings: human
[11] = In vivo pharmacokinetics in rats; parameters: species or system male Wistar rats; settings: rat
[12] = system: collagen‐induced arthritis (CIA); experiment: Collagen‐induced arthritis in mice; type: in vivo, DBA1/J male mice; settings: for reduction of clinical scores compared with vehicle controls: at study termination; for group mean histologic severity score of paws: vehicle 10.4
[13] = Toxicological studies in rats; type: in vivo; settings: rats up to 300 mg/kg dose (unpublished observation)
[14] = system: TMD‐8 DLBCL xenograft tumor; experiment: TMD‐8 xenograft model; settings: for tumor growth inhibition: 20 consecutive days
[15] = male, Wistar, plasma, iv, 1 mg/kg
[16] = male, Wistar, plasma, po, 3 mg/kg

T1 sequence (Q06187 whole entry): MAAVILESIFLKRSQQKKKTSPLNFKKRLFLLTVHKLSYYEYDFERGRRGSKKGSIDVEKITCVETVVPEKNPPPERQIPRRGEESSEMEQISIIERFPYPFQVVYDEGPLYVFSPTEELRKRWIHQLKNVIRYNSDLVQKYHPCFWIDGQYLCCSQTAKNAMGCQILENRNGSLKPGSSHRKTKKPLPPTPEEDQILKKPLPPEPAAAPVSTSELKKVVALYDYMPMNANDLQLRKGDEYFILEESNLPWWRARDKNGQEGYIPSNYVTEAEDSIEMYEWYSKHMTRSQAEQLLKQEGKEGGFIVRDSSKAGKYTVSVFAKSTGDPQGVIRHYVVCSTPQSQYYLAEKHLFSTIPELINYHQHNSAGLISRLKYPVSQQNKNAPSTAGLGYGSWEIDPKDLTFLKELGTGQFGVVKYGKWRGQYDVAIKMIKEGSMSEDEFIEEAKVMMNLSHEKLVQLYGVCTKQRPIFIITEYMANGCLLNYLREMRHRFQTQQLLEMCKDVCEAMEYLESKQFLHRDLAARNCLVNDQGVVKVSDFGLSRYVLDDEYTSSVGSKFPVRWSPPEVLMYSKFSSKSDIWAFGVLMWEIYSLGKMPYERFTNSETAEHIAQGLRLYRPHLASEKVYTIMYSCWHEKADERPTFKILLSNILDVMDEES
Sequence of CYP2C9 (P11712 whole entry): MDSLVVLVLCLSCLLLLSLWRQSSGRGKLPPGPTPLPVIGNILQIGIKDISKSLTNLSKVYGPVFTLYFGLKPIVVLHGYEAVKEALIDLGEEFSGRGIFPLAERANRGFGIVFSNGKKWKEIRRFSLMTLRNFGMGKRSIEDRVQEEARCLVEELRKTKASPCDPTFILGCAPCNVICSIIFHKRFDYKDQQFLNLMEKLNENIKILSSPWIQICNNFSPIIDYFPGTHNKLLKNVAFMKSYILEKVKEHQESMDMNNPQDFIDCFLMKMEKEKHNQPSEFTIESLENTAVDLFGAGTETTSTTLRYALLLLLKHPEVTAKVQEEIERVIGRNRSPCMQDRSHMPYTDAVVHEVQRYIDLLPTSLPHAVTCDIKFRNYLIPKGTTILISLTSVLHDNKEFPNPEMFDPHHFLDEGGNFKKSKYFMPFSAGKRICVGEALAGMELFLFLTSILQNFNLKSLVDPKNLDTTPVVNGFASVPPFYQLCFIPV
Sequence of CYP2C8 (P10632 whole entry): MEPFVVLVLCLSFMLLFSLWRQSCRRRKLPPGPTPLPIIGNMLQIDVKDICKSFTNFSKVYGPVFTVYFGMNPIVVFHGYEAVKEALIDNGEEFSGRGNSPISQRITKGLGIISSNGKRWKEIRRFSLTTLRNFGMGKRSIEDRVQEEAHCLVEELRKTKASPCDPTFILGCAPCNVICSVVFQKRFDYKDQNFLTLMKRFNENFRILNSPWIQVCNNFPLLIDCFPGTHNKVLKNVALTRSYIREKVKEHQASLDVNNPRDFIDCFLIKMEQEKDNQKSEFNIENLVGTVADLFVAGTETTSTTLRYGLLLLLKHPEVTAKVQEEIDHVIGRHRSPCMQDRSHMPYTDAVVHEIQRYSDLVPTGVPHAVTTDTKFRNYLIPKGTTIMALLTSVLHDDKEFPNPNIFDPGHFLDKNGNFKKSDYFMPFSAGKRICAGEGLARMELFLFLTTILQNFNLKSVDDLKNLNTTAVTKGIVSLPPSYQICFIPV
Sequence of CYP3A4 (P08684 whole entry): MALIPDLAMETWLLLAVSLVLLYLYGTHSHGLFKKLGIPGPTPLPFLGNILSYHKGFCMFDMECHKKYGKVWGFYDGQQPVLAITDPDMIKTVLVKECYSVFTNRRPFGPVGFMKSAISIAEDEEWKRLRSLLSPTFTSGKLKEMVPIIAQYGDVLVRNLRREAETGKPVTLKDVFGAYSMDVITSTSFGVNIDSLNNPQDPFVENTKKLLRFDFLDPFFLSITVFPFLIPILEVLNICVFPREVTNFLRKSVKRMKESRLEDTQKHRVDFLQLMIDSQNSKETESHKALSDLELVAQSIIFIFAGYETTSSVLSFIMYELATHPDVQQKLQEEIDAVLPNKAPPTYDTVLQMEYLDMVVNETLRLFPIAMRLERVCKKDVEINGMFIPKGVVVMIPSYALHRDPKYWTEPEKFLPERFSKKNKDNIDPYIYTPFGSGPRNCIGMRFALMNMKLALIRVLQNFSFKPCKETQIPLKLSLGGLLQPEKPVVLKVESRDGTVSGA
Sequence of CYP2C19 (P33261 whole entry): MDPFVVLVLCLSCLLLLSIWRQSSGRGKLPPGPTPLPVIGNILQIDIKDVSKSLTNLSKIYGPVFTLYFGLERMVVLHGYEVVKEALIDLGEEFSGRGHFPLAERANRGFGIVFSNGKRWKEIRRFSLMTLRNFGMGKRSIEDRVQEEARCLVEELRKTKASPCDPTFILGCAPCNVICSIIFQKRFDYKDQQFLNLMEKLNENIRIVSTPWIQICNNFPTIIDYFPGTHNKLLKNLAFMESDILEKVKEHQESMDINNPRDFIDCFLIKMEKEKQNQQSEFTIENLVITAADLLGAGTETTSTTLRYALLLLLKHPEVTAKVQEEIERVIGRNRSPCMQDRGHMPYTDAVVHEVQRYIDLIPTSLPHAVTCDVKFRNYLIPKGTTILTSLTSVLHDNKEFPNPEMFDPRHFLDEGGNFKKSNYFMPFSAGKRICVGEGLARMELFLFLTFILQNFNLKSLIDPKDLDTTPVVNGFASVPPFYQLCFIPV
Sequence of mutant BTK (C481S) (Q06187 whole entry C481S): as the sequence (Q06187 whole entry) above, with C481S counted along it
Sequence of TEC (P42680 whole entry): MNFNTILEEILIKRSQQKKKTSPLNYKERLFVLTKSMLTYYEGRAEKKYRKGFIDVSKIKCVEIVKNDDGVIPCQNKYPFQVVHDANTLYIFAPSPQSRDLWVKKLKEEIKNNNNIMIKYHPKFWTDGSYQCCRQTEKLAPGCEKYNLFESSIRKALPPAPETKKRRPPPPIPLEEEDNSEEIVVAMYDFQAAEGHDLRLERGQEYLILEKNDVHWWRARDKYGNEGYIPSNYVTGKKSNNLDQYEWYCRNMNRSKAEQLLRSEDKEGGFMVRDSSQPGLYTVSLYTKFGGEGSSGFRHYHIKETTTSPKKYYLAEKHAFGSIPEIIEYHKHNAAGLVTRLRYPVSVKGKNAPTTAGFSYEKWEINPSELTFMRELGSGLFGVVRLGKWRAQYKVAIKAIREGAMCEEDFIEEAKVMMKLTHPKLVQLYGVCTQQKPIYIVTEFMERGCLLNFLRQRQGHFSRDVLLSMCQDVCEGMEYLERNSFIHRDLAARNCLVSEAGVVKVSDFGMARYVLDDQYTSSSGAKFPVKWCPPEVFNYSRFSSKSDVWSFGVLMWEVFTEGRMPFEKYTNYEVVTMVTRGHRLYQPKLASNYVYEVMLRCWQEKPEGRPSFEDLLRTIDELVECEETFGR
Sequence of JAK3 (P52333 whole entry): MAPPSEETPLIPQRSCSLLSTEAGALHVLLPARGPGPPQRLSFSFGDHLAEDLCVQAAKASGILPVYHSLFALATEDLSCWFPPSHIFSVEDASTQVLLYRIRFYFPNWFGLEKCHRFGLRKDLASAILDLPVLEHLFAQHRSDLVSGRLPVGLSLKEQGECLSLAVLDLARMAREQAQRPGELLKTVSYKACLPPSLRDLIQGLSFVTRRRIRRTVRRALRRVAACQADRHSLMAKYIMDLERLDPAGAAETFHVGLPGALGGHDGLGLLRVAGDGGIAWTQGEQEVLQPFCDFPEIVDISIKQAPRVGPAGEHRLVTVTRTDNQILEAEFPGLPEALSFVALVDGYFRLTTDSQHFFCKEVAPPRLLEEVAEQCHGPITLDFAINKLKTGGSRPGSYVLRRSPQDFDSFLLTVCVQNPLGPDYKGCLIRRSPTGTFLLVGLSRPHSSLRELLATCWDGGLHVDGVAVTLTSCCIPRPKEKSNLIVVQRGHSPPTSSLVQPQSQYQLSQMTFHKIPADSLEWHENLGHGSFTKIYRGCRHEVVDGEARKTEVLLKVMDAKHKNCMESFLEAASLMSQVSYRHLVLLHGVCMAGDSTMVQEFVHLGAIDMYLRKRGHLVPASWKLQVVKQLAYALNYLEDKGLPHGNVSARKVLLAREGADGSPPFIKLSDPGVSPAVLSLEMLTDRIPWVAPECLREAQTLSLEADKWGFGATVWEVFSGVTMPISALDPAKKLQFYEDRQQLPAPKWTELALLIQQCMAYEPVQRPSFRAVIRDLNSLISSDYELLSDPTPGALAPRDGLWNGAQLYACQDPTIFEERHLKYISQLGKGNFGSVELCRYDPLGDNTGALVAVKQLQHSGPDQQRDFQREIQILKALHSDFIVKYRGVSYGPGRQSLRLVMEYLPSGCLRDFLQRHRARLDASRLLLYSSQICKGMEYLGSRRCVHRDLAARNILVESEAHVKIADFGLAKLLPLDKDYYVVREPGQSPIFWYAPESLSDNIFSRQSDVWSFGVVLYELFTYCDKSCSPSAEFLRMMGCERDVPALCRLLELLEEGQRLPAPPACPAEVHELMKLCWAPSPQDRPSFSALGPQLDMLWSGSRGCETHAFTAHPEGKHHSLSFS
Sequence of CYP2D6 (P10635 whole entry): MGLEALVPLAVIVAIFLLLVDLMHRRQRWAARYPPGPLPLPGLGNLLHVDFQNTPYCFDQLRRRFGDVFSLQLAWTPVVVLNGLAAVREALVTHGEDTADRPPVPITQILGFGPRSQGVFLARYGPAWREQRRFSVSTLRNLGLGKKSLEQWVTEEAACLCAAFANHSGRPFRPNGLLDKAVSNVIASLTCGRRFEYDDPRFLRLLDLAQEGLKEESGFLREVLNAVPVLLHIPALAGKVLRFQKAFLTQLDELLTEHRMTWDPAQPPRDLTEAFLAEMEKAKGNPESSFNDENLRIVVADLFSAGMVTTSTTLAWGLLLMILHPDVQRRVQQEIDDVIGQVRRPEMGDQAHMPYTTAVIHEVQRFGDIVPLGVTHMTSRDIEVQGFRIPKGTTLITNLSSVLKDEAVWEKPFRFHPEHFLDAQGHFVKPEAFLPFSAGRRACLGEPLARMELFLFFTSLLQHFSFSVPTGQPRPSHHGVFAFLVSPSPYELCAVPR
Sequence of BTK‐WT (Q06187 whole entry): as the sequence (Q06187 whole entry) above

Structure (SMILES): C=CC(=O)N1CC2CC(n3nc(-c4ccc(C(=O)Nc5ccccn5)cc4)c4c(N)ncnc43)CC2C1 (centres unmarked) [ZYBT1, 4‐(1‐(2‐acryloyloctahydrocyclopenta[c]pyrrol‐5‐yl)‐4‐amino‐1H‐pyrazolo[3,4‐d]pyrimidin‐3‐yl)‐N‐(pyridin‐2‐yl)benzamide]
- IC50 (mutant BTK (C481S)): 14 nM
- Ki (BTK‐WT): 14 nM
- IC50 (BTK [1]): 27 nM
- IC50 (HCK): > 10000 nM
- IC50 (JAK3): > 10000 nM
- IC50 (TEC): 38 nM
- IC50 (TMD8 cells): 1 nM
- IC50 (HBL‐1 cells): 12 nM
- IC50 (U2932 cells; U2932, 96 h, read-out: IC50 cell proliferation U2932): 961 nM
- IC50 (U2932 cells; U2932, read-out: IC50 U2932): ~1000 nM
- fold resistance of U2932 versus TMD‐8 and HBL‐1 (U2932 cells; within ABC‐DLBCL subgroup): ~ 1000 fold
- IC50 (Raji cells): 15000 nM
- IC50 (BTK [2]): 1 nM
- ZYBT1 still bound with BTK after washout (BTK [3]): more than 95%
- IC50 (phospho‐BTK (Y223); Homo sapiens, THP-1, 1 h, read-out: IC50 BTK‐phosphorylation (Y223)): 2 nM
- phosphorylation of BTK after washout (phospho‐BTK (Y223); THP‐1 cells, 500 nmol/L for 1 hour, washout, 24 hours): completely abolished
- concentration that completely abrogates phosphorylation of tyrosine 223 (phospho‐BTK (Y223); THP‐1 cells, one hour): ≥ 30 nmol/L
- IC50 (phospho‐PLCγ2 (Y1217)): 114 nM
- IC50 (TNF‐α secretion): 1 nM
- IC50 (IL‐8 secretion): 0.2 nM
- Papp at 2 µmol/L [4]: 3.3 ×10⁻⁶ cm/s
- efflux transporter substrate (Caco‐2 cell monolayers): substrate of efflux transporters
- mClint [5]: 0.46 mL/min/gm liver
- % metabolized ([5]; 1 µmol/L, 30 minutes, NADPH): up to 13%
- mClint [6]: 2.62 mL/min/gm liver
- % metabolized ([6]; 1 µmol/L, 30 minutes, NADPH): 55%
- mClint [7]: 0.67 mL/min/gm liver
- % metabolized ([7]; 1 µmol/L, 30 minutes, NADPH): ≤ 18%
- mCLlint [8]: 3.49 mL/min/gm liver
- % metabolized ([8]; 1 µmol/L, 30 minutes, NADPH): 66%
- IC50 (CYP1A2): > 30000 nM
- IC50 (CYP2C19): > 30000 nM
- IC50 (CYP2D6): > 30000 nM
- IC50 (CYP3A4): > 30000 nM
- IC50 (CYP2C8): 5000 to 15000 nM and 5500 nM
- IC50 (CYP2C9): 5000 to 15000 nM and 14700 nM
- fraction unbound (Plasma protein binding [9]): 0.088
- fraction unbound (Plasma protein binding [10]): 0.016
- Vd [11, 15]: 0.88 ± 0.12 L/kg
- clearance [11, 15]: 36 ± 7.8 mL/min/kg
- half-life [11, 15]: 0.6 ± 0.1 h
- AUC [11, 16]: 908 ± 170 ng·h/mL
- bioavailability [11, 16]: 75%
- half-life [11, 16]: 2.2 ± 1.3 h
- Cmax ([11]; male, Wistar, plasma, po, 3 mg/kg, peak plasma concentration (Cmax), rats, oral (3 mg/mg), mean ± SD, n = 4): 650 ± 222 ng/mL
- exposure to free drug at efficacy dose ([11]; considering 91% PPB): 360 nmol/L
- reduction of clinical scores compared with vehicle controls ([12]; 0.125 mg/kg once daily oral): 22%
- group mean histologic severity score of paws ([12]; 0.125 mg/kg once daily): 5
- reduction of clinical scores compared with vehicle controls ([12]; 0.25 mg/kg once daily oral): 61%
- group mean histologic severity score of paws ([12]; 0.25 mg/kg once daily): 3.75
- reduction of clinical scores compared with vehicle controls ([12]; 0.5 mg/kg once daily oral): 93%
- group mean histologic severity score of paws ([12]; 0.5 mg/kg once daily): 1
- efficacy in arthritis model compared with ibrutinib ([12]; 0.6 mg/kg ZYBT1 versus 3 mg/kg Ibrutinib): comparable efficacy as 3 mg/kg Ibrutinib
- reduction of clinical scores compared with vehicle controls ([12]; 1 mg/kg once daily oral): 97%
- group mean histologic severity score of paws ([12]; 1 mg/kg once daily): 0.2
- body weight change ([12]; 0.125, 0.25, 0.5 & 1 mg/kg, OD, end of the study (Figure S5)): did not observe any body weight change
- lowest, significantly efficacious dose ([12]; once daily): 0.25 mg/kg
- time to improvement in clinical signs of disease after initiation of dosing ([12]; once daily oral dosing): 2 days
- hematological and biochemical profile, clinical signs and body weight [13]: did not show any change in hematological and biochemical profile, clinical signs and body weight
- tumor growth inhibition ([14]; 1.5 mg/kg BID oral): 10%
- tumor growth inhibition ([14]; 3 mg/kg BID oral): 50%
- anti‐tumor efficacy compared with ibrutinib ([14]; 12.5 mg/kg, BID, intra peritoneal, 14 consecutive days (Figure S2)): comparable; also recorded: slightly better potency compared to Ibrutinib
- tumor growth inhibition ([14]; 15 mg/kg BID oral): 88%
- anti‐tumor efficacy compared with acalabrutinib ([14]; 15 mg/kg, BID, p.o., 14 consecutive days (Figure S3)): much better efficacy than acalabrutinib
- effect on body weight ([14]; 1.5, 3 & 15 mg/kg, p.o, BID, 20 days (Figure S4)): does not have any effect on the body weight
